According to ChEMBL document CHEMBL1127775, “Orally active prodrugs of quinoline-4-carboxylic acid angiotensin II receptor antagonists” (Bioorg Med Chem Lett, 1994):

Key:
Rattus norvegicus [1] = test: Oral activity determined using the salt-deplete spontaneously hypertensive rat (SHR) model, expressed as percent of maximum decrease in mean arterial pressure at a oral dose of 30 umol/kg for 6-12 hr; format: functional, Artery
Rattus norvegicus [2] = test: Oral activity determined using the salt-deplete spontaneously hypertensive rat (SHR) model, expressed as percent of maximum decrease in mean arterial pressure at a oral dose of 30 umol/kg for 0-6 hr; format: functional, Artery
Rattus norvegicus [3] = test: Oral activity determined using the salt-deplete spontaneously hypertensive rat (SHR) model, expressed as percent of maximum decrease in mean arterial pressure at a oral dose of 30 umol/kg for 12-18 hr; format: functional, Artery
Rattus norvegicus [4] = test: Oral activity determined using the salt-deplete spontaneously hypertensive rat (SHR) model, expressed as percent of maximum decrease in mean arterial pressure at a oral dose of 30 umol/kg for 18-24 hr; format: functional, Artery
Oryctolagus cuniculus = species on record: Oryctolagus cuniculus; test: Functional antagonism was measured by the ability of a single concentration of compound to block angiotensin II induced contractions in rabbit aortic smooth muscle strips.; settings: Aorta
[5] = Oral bioavailability in rat; format: ADME, organism-based; settings: in vivo
Rattus norvegicus [6] = test: Oral activity determined using the salt-deplete spontaneously hypertensive rat (SHR) model, expressed as percent of maximum decrease in mean arterial pressure at a oral dose of 10 umol/kg for 18-24 hr; format: functional, Artery
Rattus norvegicus [7] = test: Oral activity determined using the salt-deplete spontaneously hypertensive rat (SHR) model, expressed as percent of maximum decrease in mean arterial pressure at a oral dose of 10 umol/kg for 6-12 hr; format: functional, Artery
Rattus norvegicus [8] = test: Oral activity determined using the salt-deplete spontaneously hypertensive rat (SHR) model, expressed as percent of maximum decrease in mean arterial pressure at a oral dose of 10 umol/kg for 12-18 hr; format: functional, Artery
Rattus norvegicus [9] = test: Oral activity determined using the salt-deplete spontaneously hypertensive rat (SHR) model, expressed as percent of maximum decrease in mean arterial pressure at a oral dose of 10 umol/kg for 0-6 hr; format: functional, Artery
Rattus norvegicus [10] = test: Tested for fall in blood pressure on seventh day after dosing; format: functional

Which Decrease (Rattus norvegicus [1]) does the source give for `O=C(O)c1c(Oc2ccc(-c3ccccc3-c3nn[nH]n3)cc2)c(C2CC2)nc2ccccc12` here?
Its Decrease is 14%.

What about the Decrease (Rattus norvegicus [2]) of the same molecule?
The Decrease was 14%.

What about the Decrease (Rattus norvegicus [3]) of the same molecule?
Its Decrease is 21%.

What about the Decrease (Rattus norvegicus [4]) of the same molecule?
Its Decrease is 23%.

And the Kb (Oryctolagus cuniculus)?
The Kb was 0.061 nM.

For `CC(C)C(OC(=O)C(C)(C)C)n1nnc(-c2ccccc2-c2ccc(Oc3c(C4CC4)nc4ccccc4c3C(=O)O)cc2)n1` (stereo not given), which bioavailability [5] is on record?
The bioavailability was 39%.

What about the Decrease (Rattus norvegicus [6]) of the same molecule?
Its Decrease is 19%.

And the Decrease (Rattus norvegicus [7])?
Its Decrease is 17%.

And the Decrease (Rattus norvegicus [8])?
Its Decrease is 20%.

What about the Decrease (Rattus norvegicus [9]) of the same molecule?
The Decrease was 17%.

With `CCCCc1nc(Cl)c(CO)n1Cc1ccc(-c2ccccc2-c2nnn[nH]2)cc1` [LOSARTAN] as the molecule, how does the Blood pressure (Rattus norvegicus [10]) read?
Its Blood pressure is 20 mmHg.

With `Cc1oc(=O)oc1COC(=O)c1c(Oc2ccc(-c3ccccc3-c3nn[nH]n3)cc2)c(C2CC2)nc2ccccc12` as the molecule, how does the bioavailability [5] read?
Its bioavailability is 27%.

And the Decrease (Rattus norvegicus [6])?
The Decrease was 24%.

And the Decrease (Rattus norvegicus [7])?
The Decrease was 19%.

What about the Decrease (Rattus norvegicus [8]) of the same molecule?
The Decrease was 23%.

What about the Decrease (Rattus norvegicus [9]) of the same molecule?
The Decrease was 19%.

And the Blood pressure (Rattus norvegicus [10])?
The Blood pressure was 45 mmHg.

With `CCC(=O)OC(OC(=O)c1c(Oc2ccc(-c3ccccc3-c3nn[nH]n3)cc2)c(C2CC2)nc2ccccc12)C(C)C` (stereo not given) as the molecule, how does the Decrease (Rattus norvegicus [6]) read?
The Decrease was 19%.

And the Decrease (Rattus norvegicus [7])?
Its Decrease is 5%.

What about the Decrease (Rattus norvegicus [8]) of the same molecule?
Its Decrease is 9%.

And the Decrease (Rattus norvegicus [9])?
Its Decrease is 7%.

With `CCOC(=O)c1c(Oc2ccc(-c3ccccc3-c3nn[nH]n3)cc2)c(C2CC2)nc2ccccc12` as the molecule, how does the Decrease (Rattus norvegicus [1]) read?
The Decrease was 19%.

And the Decrease (Rattus norvegicus [2])?
Its Decrease is 17%.

And the Decrease (Rattus norvegicus [3])?
Its Decrease is 25%.

And the Decrease (Rattus norvegicus [4])?
The Decrease was 26%.
